Drawing on patent US8779142B2, “Azabicyclo compound and salt thereof” (Taiho Pharmaceutical Co., Ltd., priority 2009, dated 2014), this text covers IC50 for 27 compounds.

Test [1] addresses human HSP90 alpha protein (HSP90 N-terminal protein, amino acids 2-236) (Homo sapiens (Human), UniProt P07900). The experiment in a line: Measurement of HSP90-binding activity (AlphaScreen competitive assay, biotin-labeled geldanamycin). The conditions noted are these: concentration inhibiting binding of biotin-labeled geldanamycin (40 nM) to purified HSP90 to 50% of control; read-out: HSP-binding activity IC50. A general note: Alpha assays give light when donor and acceptor beads are brought close together.

The subject of the next test is SK-BR-3 cells. Put plainly: Measurement of cell growth inhibition (crystal violet staining method). It is filed as cell-based. The settings on record: Homo sapiens; breast cancer SK-BR-3 cells, 72 hr culture with test substance.

`CC(C)c1nn(-c2ccc(C(N)=O)cc2CN(C)C)c2nccc(-n3cnc(-c4cnn(C)c4)c3)c12` [Example 126, 3-{(Dimethylamino)methyl}-4-{3-isopropyl-4-(4-(1-methyl-1H-pyrazol-4-yl)-1H-imidazol-1-yl)-1H-pyrazolo[3,4-b]pyridin-1-yl}benzamide]: the IC50 in test [1] turned out to be 230 nM; in the test with SK-BR-3 cells, 1130 nM.

Turning to `CC(C)c1nn(-c2ccc(C(N)=O)cc2CN2CCOCC2)c2nccc(-n3cnc(-c4cnn(C)c4)c3)c12` [Example 127, 4-{3-Isopropyl-4-(4-(1-methyl-1H-pyrazol-4-yl)-1H-imidazol-1-yl)-1H-pyrazolo[3,4-b]pyridin-1-yl}-3-(morpholinomethyl)benzamide], the values for the half-inhibitory concentration (IC50) (in test [1]; in the test on SK-BR-3 cells) were 230 nM and 1560 nM, respectively.

Turning to `Cc1c(C(N)=O)ccc(-n2nc(C(C)C)c3c(-n4cnc(-c5cnn(C)c5)c4)ccnc32)c1C` [Example 129, 4-{3-Isopropyl-4-(4-(1-methyl-1H-pyrazol-4-yl)-1H-imidazol-1-yl)-1H-pyrazolo[3,4-b]pyridin-1-yl}-2,3-dimethylbenzamide], the values for the IC50 (in test [1]; with SK-BR-3 cells) were 290 nM and 1130 nM, respectively.

Turning to `Cc1c(-n2nc(C(C)C)c3c(-n4cnc(-c5cnn(C)c5)c4)ccnc32)ccc(C(N)=O)c1F` [Example 130, 2-Fluoro-4-{3-isopropyl-4-(4-(1-methyl-1H-pyrazol-4-yl)-1H-imidazol-1-yl)-1H-pyrazolo[3,4-b]pyridin-1-yl}-3-methylbenzamide], the concentration for half-maximal inhibition (IC50) was determined as 690 nM in test [1] and 1890 nM in the test with SK-BR-3 cells.

With `CCc1c(-n2nc(C(C)C)c3c(-n4cnc(-c5cnn(C)c5)c4)ccnc32)ccc(C(N)=O)c1F` [Example 131, 3-Ethyl-2-fluoro-4-{3-isopropyl-4-(4-(1-methyl-1H-pyrazol-4-yl)-1H-imidazol-1-yl)-1H-pyrazolo[3,4-b]pyridin-1-yl}benzamide], the figures for the IC50 (in test [1]; with SK-BR-3 cells) were 700 nM and 920 nM, respectively.

Turning to `CCNc1c(C(N)=O)ccc(-n2nc(C(C)C)c3c(-n4cnc(-c5cnn(C)c5)c4)ccnc32)c1C` [Example 132, 2-(Ethylamino)-4-{3-isopropyl-4-(4-(1-methyl-1H-pyrazol-4-yl)-1H-imidazol-1-yl)-1H-pyrazolo[3,4-b]pyridin-1-yl}-3-methylbenzamide], the IC50 amounted to 120 nM in test [1] and 100 nM in the test on SK-BR-3 cells.

`CCNc1c(C(N)=O)ccc(-n2nc(C(C)C)c3c(-n4cnc(-c5cnn(C)c5)c4)ccnc32)c1CC` [Example 133, 3-Ethyl-2-(ethylamino)-4-{3-isopropyl-4-(4-(1-methyl-1H-pyrazol-4-yl)-1H-imidazol-1-yl)-1H-pyrazolo[3,4-b]pyridin-1-yl}benzamide]: the IC50 amounted to 160 nM in test [1] and 150 nM in the test with SK-BR-3 cells.

For the compound `CCc1c(-n2nc(C(C)C)c3c(-n4cnc(-c5cnn(C)c5)c4)ccnc32)ccc(C(N)=O)c1N` [Example 134, 2-Amino-3-ethyl-4-{3-isopropyl-4-(4-(1-methyl-1H-pyrazol-4-yl)-1H-imidazol-1-yl)-1H-pyrazolo[3,4-b]pyridin-1-yl}benzamide], the 50% inhibitory concentration (IC50) in test [1] came to 200 nM; with SK-BR-3 cells, 110 nM.

For the compound `Cc1cc(C(N)=O)ccc1-n1nc(C(C)C)c2c(-n3cnc(-c4cccnc4)c3)ccnc21` [Example 135, 4-{3-Isopropyl-4-(4-(pyridin-3-yl)-1H-imidazol-1-yl)-1H-pyrazolo[3,4-b]pyridin-1-yl}-3-methylbenzamide], the half-inhibitory concentration (IC50) in test [1] amounted to 400 nM; in the test with SK-BR-3 cells, 690 nM.

In the case of `CCc1cc(C(N)=O)ccc1-n1nc(C(C)C)c2c(-n3cnc(-c4cccnc4)c3)ccnc21` [Example 136, 3-Ethyl-4-{3-isopropyl-4-(4-(pyridin-3-yl)-1H-imidazol-1-yl)-1H-pyrazolo[3,4-b]pyridin-1-yl}benzamide], the IC50 in test [1] was determined as 130 nM; in the test with SK-BR-3 cells, 270 nM.

For `CC(C)c1cc(C(N)=O)ccc1-n1nc(C(C)C)c2c(-n3cnc(-c4cccnc4)c3)ccnc21` [Example 137, 3-Isopropyl-4-{3-isopropyl-4-(4-(pyridin-3-yl)-1H-imidazol-1-yl)-1H-pyrazolo[3,4-b]pyridin-1-yl}benzamide], the IC50 amounted to 280 nM in test [1] and 430 nM in the test with SK-BR-3 cells.

On to `CC(C)c1nn(-c2ccc(C(N)=O)cc2C2CC2)c2nccc(-n3cnc(-c4cccnc4)c3)c12` [Example 138, 3-Cyclopropyl-4-{3-isopropyl-4-(4-(pyridin-3-yl)-1H-imidazol-1-yl)-1H-pyrazolo[3,4-b]pyridin-1-yl}benzamide], for which the IC50 in test [1] is 190 nM; with SK-BR-3 cells, 530 nM.

Consider `CCNc1cc(-n2nc(C(C)C)c3c(-n4cnc(-c5cccnc5)c4)ccnc32)ccc1C(N)=O` [Example 139, 2-(Ethylamino)-4-{3-isopropyl-4-(4-(pyridin-3-yl)-1H-imidazol-1-yl)-1H-pyrazolo[3,4-b]pyridin-1-yl}benzamide], for which the half-inhibitory concentration (IC50) in test [1] is 570 nM; with SK-BR-3 cells it was 280 nM.

On to `CC(C)Nc1cc(-n2nc(C(C)C)c3c(-n4cnc(-c5cccnc5)c4)ccnc32)ccc1C(N)=O` [Example 140, 4-{3-Isopropyl-4-(4-(pyridin-3-yl)-1H-imidazol-1-yl)-1H-pyrazolo[3,4-b]pyridin-1-yl}-2-(isopropylamino)benzamide], for which the values for the half-maximal inhibitory concentration (IC50) (in test [1]; in the test with SK-BR-3 cells) were 760 nM and 190 nM, respectively.

As to `CC(C)c1nn(-c2ccc(C(N)=O)c(NC(C)(C)C)c2)c2nccc(-n3cnc(-c4cccnc4)c3)c12` [Example 141, 2-(Tert-butylamino)-4-{3-isopropyl-4-(4-(pyridin-3-yl)-1H-imidazol-1-yl)-1H-pyrazolo[3,4-b]pyridin-1-yl}benzamide], the figures for the half-maximal inhibitory concentration (IC50) (in test [1]; in the test on SK-BR-3 cells) were 410 nM and 140 nM, respectively.

With `COc1cc(C(N)=O)ccc1-n1nc(C(C)C)c2c(-n3cnc(-c4cccnc4)c3)ccnc21` [Example 142, 4-{3-Isopropyl-4-(4-(pyridin-3-yl)-1H-imidazol-1-yl)-1H-pyrazolo[3,4-b]pyridin-1-yl}-3-methoxybenzamide], the IC50 was found to be 120 nM in test [1] and 220 nM in the test with SK-BR-3 cells.

Turning to `CC(C)Nc1cc(-n2nc(C(C)C)c3c(-n4cnc(-c5cn[nH]c5)c4)ccnc32)ccc1C(N)=O` [Example 143, 4-{4-(4-(1H-Pyrazol-4-yl)-1H-imidazol-1-yl)-3-isopropyl-1H-pyrazolo[3,4-b]pyridin-1-yl}-2-(isopropylamino)benzamide], the 50% inhibitory concentration (IC50) in test [1] worked out at 170 nM; with SK-BR-3 cells, 30 nM.

Regarding `CCNc1cc(-n2nc(C(C)C)c3c(-n4cnc(-c5cn[nH]c5)c4)ccnc32)ccc1C(N)=O` [Example 144, 4-{4-(4-(1H-Pyrazol-4-yl)-1H-imidazol-1-yl)-3-isopropyl-1H-pyrazolo[3,4-b]pyridin-1-yl}-2-(ethylamino)benzamide], the IC50 in test [1] came out at 420 nM; in the test on SK-BR-3 cells, 110 nM.

With `CCn1cc(-c2cn(-c3ccnc4c3c(C(C)C)nn4-c3ccc(C(N)=O)cc3Cl)cn2)cn1` [Example 145, 3-Chloro-4-{4-(4-(1-ethyl-1H-pyrazol-4-yl)-1H-imidazol-1-yl)-3-isopropyl-1H-pyrazolo[3,4-b]pyridin-1-yl}benzamide], the IC50 worked out at 630 nM in test [1] and 1500 nM in the test with SK-BR-3 cells.

On to `CCNc1cc(-n2nc(C(C)C)c3c(-n4cnc(-c5cnn(CC)c5)c4)ccnc32)ccc1C(N)=O` [Example 146, 4-{4-(4-(1-Ethyl-1H-pyrazol-4-yl)-1H-imidazol-1-yl)-3-isopropyl-1H-pyrazolo[3,4-b]pyridin-1-yl}-2-(ethylamino)benzamide], for which the IC50 in test [1] was determined as 770 nM; with SK-BR-3 cells, 210 nM.

Consider `CCNc1cc(-n2nc(C(C)C)c3c(-n4cnc(-c5cnn(C(F)F)c5)c4)ccnc32)ccc1C(N)=O` [Example 147, 4-{4-(4-(1-(Difluoromethyl)-1H-pyrazol-4-yl)-1H-imidazol-1-yl)-3-isopropyl-1H-pyrazolo[3,4-b]pyridin-1-yl}-2-(ethylamino)benzamide], for which the IC50 stood at 810 nM in test [1] and 360 nM in the test on SK-BR-3 cells.

Turning to `Cc1cc(C(N)=O)ccc1-n1nc(C(C)C)c2c(-n3cnc(-c4ccncc4)c3)ccnc21` [Example 149, 4-{3-Isopropyl-4-(4-(pyridin-4-yl)-1H-imidazol-1-yl)-1H-pyrazolo[3,4-b]pyridin-1-yl}-3-methylbenzamide], the IC50 is 390 nM in test [1] and 690 nM in the test on SK-BR-3 cells.

As to `CC(C)NC(=O)c1ccc(-c2cn(-c3ccnc4c3c(C(C)C)nn4-c3ccc(C(N)=O)cc3Cl)cn2)cc1` [Example 150, 4-{1-(1-(4-Carbamoyl-2-chlorophenyl)-3-isopropyl-1H-pyrazolo[3,4-b]pyridin-4-yl)-1H-imidazol-4-yl}-N-isopropylbenzamide], the IC50 stood at 930 nM in test [1] and 1330 nM with SK-BR-3 cells.

Take `CC(C)c1nn(-c2ccc(C(N)=O)cc2Cl)c2nccc(-n3cnc(-c4ccc(C(=O)N(C)C)cc4)c3)c12` [Example 151, 4-{1-(1-(4-Carbamoyl-2-chlorophenyl)-3-isopropyl-1H-pyrazolo[3,4-b]pyridin-4-yl)-1H-imidazol-4-yl}-N,N-dimethylbenzamide]: the IC50 amounted to 660 nM in test [1] and 1540 nM with SK-BR-3 cells.

As to `CC(C)c1nn(-c2ccc(C(N)=O)cc2Cl)c2nccc(-n3cnc(-c4ccc(C(N)=O)cc4)c3)c12` [Example 152, 4-{4-(4-(4-Carbamoylphenyl)-1H-imidazol-1-yl)-3-isopropyl-1H-pyrazolo[3,4-b]pyridin-1-yl}-3-chlorobenzamide], the IC50 in test [1] is 1010 nM; in the test with SK-BR-3 cells, 1280 nM.

Take `Cn1cc(-c2cn(-c3ccnc4c3c(C(F)(F)F)nn4-c3ccc(C(N)=O)cc3Cl)cn2)cn1` [Example 153, 3-Chloro-4-{4-(4-(1-methyl-1H-pyrazol-4-yl)-1H-imidazol-1-yl)-3-(trifluoromethyl)-1H-pyrazolo[3,4-b]pyridin-1-yl}benzamide]: the half-inhibitory concentration (IC50) turned out to be 130 nM in test [1] and 240 nM with SK-BR-3 cells.

Take `Cc1cc(C(N)=O)ccc1-n1nc(C(F)(F)F)c2c(-n3cnc(-c4cnn(C)c4)c3)ccnc21` [Example 154, 3-Methyl-4-{4-(4-(1-methyl-1H-pyrazol-4-yl)-1H-imidazol-1-yl)-3-(trifluoromethyl)-1H-pyrazolo[3,4-b]pyridin-1-yl}benzamide]: the results for the 50% inhibitory concentration (IC50) (in test [1]; in the test on SK-BR-3 cells) were 140 nM and 120 nM, respectively.

As a reminder, the IC50 is the concentration that gives 50% inhibition.
